# Results as given in PMC11096368, “Transcriptomic signature, bioactivity and safety of a non-hepatotoxic analgesic generating AM404 in the midbrain PAG region” (Scientific Reports, 2024).
# How the values were obtained:
# [1] = 5-day repeat-dose oral toxicity and toxicokinetic study (non-GLP); assay type: in vivo, rats; settings: Sprague-Dawley, rat, blood, po
# Description: (§1) As part of a two-phase study, repeat-dose toxicity and toxicokinetics of SRP-001, when administered via oral gavage once daily to Sprague–Dawley rats for 5 d, was done (Calvert Labs/Altasciences, Scott Township, PA USA). The doses selected for Phase II were based on the results of Phase I. SRP-001 was administered to 20 naïve rats (5/group in Groups 5–8) once daily for 5 days via oral gavage for toxicology evaluation and once to 18 naïve rats (6/group in Groups 9–11) for toxicokinetic evaluation.
# (§2) Mortality/morbidity was performed twice daily and once prior to sacrifice. Clinical observations were evaluated prior to each dose administration and approximately 1–3 h post-dose for animals in Groups 5–8. Body weights were recorded prior to randomization/selection, prior to dose administration on day 1 for animals in Groups 5–11, and prior to dose administration on day 5 for Groups 5–8. Food consumption was recorded for animals from Groups 5–8 on day 5. Blood for evaluation of hematology, coagulation and clinical chemistry and urine for urinalysis was collected from animals in Groups 5–8 on day 6. All animals in Groups 5–8 were sacrificed on […]. Selected tissues were harvested at necropsy, selected organs weighed, and selected tissues preserved. Blood for toxicokinetic evaluation was collected from animals in Groups 9–11 at selected timepoints on day 1 to ensure comprehensive data capture. These timepoints include 0 h (pre-dose) and post-dose intervals of 1, 2, 4, 8, and 24 h on both Day 1 and […] of the study. This schedule allows for a robust assessment of SRP-001's pharmacokinetic profile, including absorption, distribution, metabolism, and excretion and is in line with current FDA-guidelines for GLP studies.
# (§3) Clinical signs included soft feces, brown staining of the anogenital area, and a few instances of red staining of the muzzle. […] Half-lives were 6.19 and 6.86 h at mid and high doses, respectively. […] Based on these observations, SRP-001 was considered to be tolerated at 1200 mg/kg when administered once daily for 5 consecutive days.
# Sprague–Dawley rats = assay: as above; assay type: in vivo
# Description: as §1, §2, §3
# healthy volunteers = assay: Phase 1 trial safety and tolerability; assay type: in vivo, human; settings: for Clinically significant abnormality (N): Adverse events / Clinically significant abnormality (N): Clinical chemistry / Clinically significant abnormality (N): ECG / Clinically significant abnormality (N): Physical exam / Clinically significant abnormality (N): Urinalysis / Clinically significant abnormality (N): Vital signs / Clinically significant abnormality (N): pharHematology: n = 6
# Description: A randomized, double-blind, placebo-controlled Phase 1 trial (ClinicalTrials.gov identifier: NCT05484414) (02/08/2022) was conducted to assess the safety, tolerability, food effect, pharmacokinetics (PK), and pharmacodynamics (PD) of single and multiple ascending doses of SRP-001 (Quotient Sciences, Miami FL USA; Fig. 3h - k and Methods). The trial was conducted in accordance with the International Council for Harmonisation of Technical Requirements for Pharmaceuticals for Human Use (ICH), Guideline for GCP: Consolidated Guidance (E6), attained Institutional Review Board approval, and all applicable regulatory requirements for Phase 1, First in Human clinical trials. Safety measurements and plasma samples to determine PK parameters were collected throughout the study for all subjects and reviewed by the Safety Review Committee. PK stopping criteria were established to assure that systemic exposure to SRP-001 was less than or equal to the systemic exposure achieved at the NOAEL doses in the 28-day repeat-dose toxicology studies in the rat and dog. The trial’s Safety Advisory Committee has approved the publication of the Phase 1 results.
# SRP-001 was administered as an oral nanosuspension to 56 healthy volunteers across five Single Ascending Dose (SAD) and two Multiple Ascending Dose (MAD) cohorts, with 42 subjects receiving SRP-001 and 14 receiving a placebo.
# A two-part randomized, double-blind, placebo-controlled Phase 1 trial was conducted to assess the safety, tolerability, PK and PD of SRP-001 ascending doses (Quotient Sciences, Miami, FL, USA). The study was conducted in accordance with the International Council for Harmonisation of Technical Requirements for Pharmaceuticals for Human Use (ICH), Guideline for GCP: Consolidated Guidance (E6), and applicable regulatory requirements(s) including clinical research guidelines established by the Basic Principles defined in the U.S. 21 CFR Parts 50, 56, and 312 and the principles enunciated in the Declaration of Helsinki (revised version Fortaleza 2013). The clinical protocol and informed consent form were reviewed and approved by an Institutional Review Board (IRB; Advarra IRB, 6100 Merriweather Drive, Suite 600, Columbia, MD 21,044; Quotient Protocol No. SRP-101 and Quotient Sciences Study No. QSC205130; Quotient Sciences Miami, 3898 NW 7th Street, Miami, FL 33,126.). The study comprises a SAD (Part 1) assessment that includes a food effect assessment that contributes data to inform a subsequent MAD (Part 2) dose-ranging study. Safety measurements were collected throughout the study for all subjects. Blood samples were collected to determine the PK parameters of SRP-001 (ClinicalTrials.gov identifier: NCT05484414) (02/08/2022).
# NHVs also underwent continuous ECG Holter monitoring from at least 1 h prior to dosing until 24 h post-dose, and resulting measurements were monitored consistently. All ECGs were collected electronically using a Mortara H12 + Holter monitor. Specific procedures for ECG Holter recording and extractions were provided to the Investigator by the Central ECG Laboratory, Banook Group. On Day 1, continuous Holter recording commenced at least 1 h prior to dosing until 24 h post-dose. Subjects were required to rest in the supine position with no external stimuli (e.g. music or television) for 15 min prior to the nominal time point where an ECG extraction was scheduled. This extraction was taken by the third-party Holter provider at the planned time, and therefore, no other procedures were performed within the resting period. […] Subjects were allowed to move more freely outside of the primary ECG rest periods. Comfort breaks for hygienic purposes were allowed each morning well in advance of the required supine/ECG extraction points. […]
# [2] = Cohort 1 (Regimen A), 300 mg SRP-001, Fasted
# [3] = Cohort 2 (Regimen B), 600 mg SRP-001, Fasted
# [4] = Cohort 3 (Regimen C), 900 mg SRP-001, Fasted
# [5] = Cohort 4 (Regimen E), 2000 mg SRP-001, Fasted
compound,measurement,setting,value
"CCN(CC)C(=O)c1ccccc1S(=O)(=O)NCC(=O)Nc1ccc(O)cc1 [SRP-001, N,N-diethyl-2-[[2-(4-hydroxyanilino)-2-oxo-ethyl]sulfamoyl]benzamide]",half-life,[1]; high dose,6.86 h
same,Tmax,[1]; low dose,3 h
same,Tmax,[1]; mid and high doses,4.5 h
same,half-life,[1]; mid dose,6.19 h
same,AUC and Cmax levels versus dose,Sprague–Dawley rats; day 1,increased in a dose-dependent manner
same,Dose considered to be tolerated,Sprague–Dawley rats; once daily for 5 consecutive days,1200 mg/kg
same,Liver weights and cholesterol levels,Sprague–Dawley rats; once daily for 5 days,Test article-related increases
same,Clinically significant abnormality (N): Adverse events,healthy volunteers; [2],0
same,Clinically significant abnormality (N): Clinical chemistry,healthy volunteers; [2],0
same,Clinically significant abnormality (N): ECG,healthy volunteers; [2],0
same,Clinically significant abnormality (N): Physical exam,healthy volunteers; [2],0
same,Clinically significant abnormality (N): Urinalysis,healthy volunteers; [2],0
same,Clinically significant abnormality (N): Vital signs,healthy volunteers; [2],0
same,Clinically significant abnormality (N): pharHematology,healthy volunteers; [2],0
same,Clinically significant abnormality (N): Adverse events,healthy volunteers; [3],0
same,Clinically significant abnormality (N): Clinical chemistry,healthy volunteers; [3],0
same,Clinically significant abnormality (N): ECG,healthy volunteers; [3],0
same,Clinically significant abnormality (N): Physical exam,healthy volunteers; [3],0
same,Clinically significant abnormality (N): Urinalysis,healthy volunteers; [3],0
same,Clinically significant abnormality (N): Vital signs,healthy volunteers; [3],0
same,Clinically significant abnormality (N): pharHematology,healthy volunteers; [3],0
same,Clinically significant abnormality (N): Adverse events,healthy volunteers; [4],0
same,Clinically significant abnormality (N): Clinical chemistry,healthy volunteers; [4],0
same,Clinically significant abnormality (N): ECG,healthy volunteers; [4],0
same,Clinically significant abnormality (N): Physical exam,healthy volunteers; [4],0
same,Clinically significant abnormality (N): Urinalysis,healthy volunteers; [4],0
same,Clinically significant abnormality (N): Vital signs,healthy volunteers; [4],0
same,Clinically significant abnormality (N): pharHematology,healthy volunteers; [4],0
same,Clinically significant abnormality (N): Adverse events,healthy volunteers; [5],0
same,Clinically significant abnormality (N): Clinical chemistry,healthy volunteers; [5],0
same,Clinically significant abnormality (N): ECG,healthy volunteers; [5],0
same,Clinically significant abnormality (N): Physical exam,healthy volunteers; [5],0
same,Clinically significant abnormality (N): Urinalysis,healthy volunteers; [5],0
same,Clinically significant abnormality (N): Vital signs,healthy volunteers; [5],0
same,Clinically significant abnormality (N): pharHematology,healthy volunteers; [5],0
same,Emesis,healthy volunteers; Phase 1 MAD cohort,no emesis
same,"Safety assessments (vital signs, physical examinations, continuous ECG, laboratory tests)",healthy volunteers; SAD and MAD cohorts,revealed no abnormalities
same,Serious adverse events (SAEs),"healthy volunteers; five SAD and two MAD cohorts, 42 subjects receiving SRP-001",no serious adverse events (SAEs) reported
same,Tolerability,"healthy volunteers; oral nanosuspension, SAD and MAD cohorts",well tolerated
